Data as given in ChEMBL document CHEMBL1127775, “Orally active prodrugs of quinoline-4-carboxylic acid angiotensin II receptor antagonists” (Bioorg Med Chem Lett, 1994).

Assays:
[1] = test system: Rattus norvegicus; experiment: Oral activity determined using the salt-deplete spontaneously hypertensive rat (SHR) model, expressed as percent of maximum decrease in mean arterial pressure at a oral dose of 10 umol/kg for 0-6 hr; assay type: functional, Artery
[2] = test system: Rattus norvegicus; experiment: Oral activity determined using the salt-deplete spontaneously hypertensive rat (SHR) model, expressed as percent of maximum decrease in mean arterial pressure at a oral dose of 10 umol/kg for 18-24 hr; assay type: functional, Artery
[3] = Oral bioavailability in rat; assay type: ADME, organism-based; conditions: in vivo
[4] = test system: Rattus norvegicus; experiment: Oral activity determined using the salt-deplete spontaneously hypertensive rat (SHR) model, expressed as percent of maximum decrease in mean arterial pressure at a oral dose of 10 umol/kg for 6-12 hr; assay type: functional, Artery
[5] = test system: Rattus norvegicus; experiment: Oral activity determined using the salt-deplete spontaneously hypertensive rat (SHR) model, expressed as percent of maximum decrease in mean arterial pressure at a oral dose of 10 umol/kg for 12-18 hr; assay type: functional, Artery
[6] = test system: Rattus norvegicus; experiment: Tested for fall in blood pressure on seventh day after dosing; assay type: functional
[7] = test system: Rattus norvegicus; experiment: Oral activity determined using the salt-deplete spontaneously hypertensive rat (SHR) model, expressed as percent of maximum decrease in mean arterial pressure at a oral dose of 30 umol/kg for 18-24 hr; assay type: functional, Artery
[8] = test system: Rattus norvegicus; experiment: Oral activity determined using the salt-deplete spontaneously hypertensive rat (SHR) model, expressed as percent of maximum decrease in mean arterial pressure at a oral dose of 30 umol/kg for 6-12 hr; assay type: functional, Artery
[9] = test system: Rattus norvegicus; experiment: Oral activity determined using the salt-deplete spontaneously hypertensive rat (SHR) model, expressed as percent of maximum decrease in mean arterial pressure at a oral dose of 30 umol/kg for 0-6 hr; assay type: functional, Artery
[10] = test system: Rattus norvegicus; experiment: Oral activity determined using the salt-deplete spontaneously hypertensive rat (SHR) model, expressed as percent of maximum decrease in mean arterial pressure at a oral dose of 30 umol/kg for 12-18 hr; assay type: functional, Artery
[11] = organism: Oryctolagus cuniculus; experiment: Functional antagonism was measured by the ability of a single concentration of compound to block angiotensin II induced contractions in rabbit aortic smooth muscle strips.; conditions: Aorta

SMILES | Decrease [1] | Decrease [2] | bioavailability [3] | Decrease [4] | Decrease [5] | Blood pressure [6] | Decrease [7] | Decrease [8] | Decrease [9] | Decrease [10] | Kb [11]
CC(C)C(OC(=O)C(C)(C)C)n1nnc(-c2ccccc2-c2ccc(Oc3c(C4CC4)nc4ccccc4c3C(=O)O)cc2)n1 (stereo not given) | 17% | 19% | 39% | 17% | 20% | – | – | – | – | – | –
Cc1oc(=O)oc1COC(=O)c1c(Oc2ccc(-c3ccccc3-c3nn[nH]n3)cc2)c(C2CC2)nc2ccccc12 | 19% | 24% | 27% | 19% | 23% | 45 mmHg | – | – | – | – | –
O=C(O)c1c(Oc2ccc(-c3ccccc3-c3nn[nH]n3)cc2)c(C2CC2)nc2ccccc12 | – | – | – | – | – | – | 23% | 14% | 14% | 21% | 0.061 nM
CCC(=O)OC(OC(=O)c1c(Oc2ccc(-c3ccccc3-c3nn[nH]n3)cc2)c(C2CC2)nc2ccccc12)C(C)C (stereo not given) | 7% | 19% | – | 5% | 9% | – | – | – | – | – | –
CCOC(=O)c1c(Oc2ccc(-c3ccccc3-c3nn[nH]n3)cc2)c(C2CC2)nc2ccccc12 | – | – | – | – | – | – | 26% | 19% | 17% | 25% | –
CCCCc1nc(Cl)c(CO)n1Cc1ccc(-c2ccccc2-c2nnn[nH]2)cc1 [LOSARTAN] | – | – | – | – | – | 20 mmHg | – | – | – | – | –
